Test results taken from patent US9849138B2, “1,4-benzodiazepone-2,5-diones and related compounds with therapeutic properties” (The Regents of the University of Michigan, priority 2009, dated 2017).
pIC50: −log10 of the molar value.

Experiments:
[1] = biological target: ROCK-II (h, amino acids 11-552) (Homo sapiens (Human), UniProt O75116); test: ROCK-II (h) inhibition assay; assay type: biochemical; conditions: [γ-32P-ATP] filter assay, 40 minutes at room temperature, read-out: ROCK2 IC50
Procedure: ROCK-II (h) Inhibition Assay:
In a final reaction volume of 25 μL, ROCK-II (h, amino acids 11-552) (5-10 mU) was incubated with 50 mM Tris pH 7.5, 0.1 mM EGTA, 30 μM […], 10 mM magnesium acetate and [γ-^32P-ATP] (specific activity approx. 500 cpm/pmol, concentration as required). The reaction was initiated by the addition of the MgATP mix. After incubation for 40 minutes at room temperature, the reaction was stopped by the addition of 5 μL of a 3% phosphoric acid solution. 10 μL of the reaction was then spotted onto a P30 filter-mat and washed three times for 5 minutes in 75 mM phosphoric acid and once in methanol prior to drying and scintillation counting.

neointimal formation = conditions: rats; cited from earlier work
[2] = test system: ventricular hypertrophy and function; conditions: Dahl salt-sensitive rats; cited from earlier work
blood pressure = conditions: spontaneously hypertensive, renal hypertensive and deoxycortisone acetate salt hypertensive rats; cited from earlier work
ROCK = conditions: competition with intracellular micromolar ATP; cited from earlier work
coronary stenosis = conditions: porcine, long term treatment; cited from earlier work
[3] = test system: infarct size and neurologic deficit; conditions: rat stroke model; cited from earlier work

Chain of ROCK-II (h, amino acids 11-552) (O75116 11-552): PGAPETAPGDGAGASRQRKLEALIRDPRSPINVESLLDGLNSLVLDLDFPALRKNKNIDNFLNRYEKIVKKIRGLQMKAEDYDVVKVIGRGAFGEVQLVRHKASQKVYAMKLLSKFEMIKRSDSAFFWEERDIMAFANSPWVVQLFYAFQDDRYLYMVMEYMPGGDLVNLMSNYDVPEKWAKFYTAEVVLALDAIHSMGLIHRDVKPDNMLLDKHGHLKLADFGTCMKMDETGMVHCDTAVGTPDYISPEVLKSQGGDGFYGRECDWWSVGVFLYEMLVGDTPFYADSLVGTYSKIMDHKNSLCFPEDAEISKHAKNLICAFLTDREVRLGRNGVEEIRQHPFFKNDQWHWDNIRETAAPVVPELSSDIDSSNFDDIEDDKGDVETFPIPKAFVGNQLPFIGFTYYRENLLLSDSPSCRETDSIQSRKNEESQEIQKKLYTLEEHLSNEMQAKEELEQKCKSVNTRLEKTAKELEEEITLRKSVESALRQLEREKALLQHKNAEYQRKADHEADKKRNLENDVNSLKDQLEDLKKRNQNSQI

CN1C(=O)[C@@H](Cc2ccc(-c3ccncc3)cc2)NC(=O)c2cccc(Cl)c21 [Compound 5, (R)-9-chloro-1-methyl-3-(4-(pyridin-4-yl)benzyl)-3,4-dihydro-1H-benzo[e][1,4]diazepine-2,5-dione]
pIC50 [1]: 6.00

C[C@@H](N)[C@H]1CC[C@H](C(=O)Nc2ccncc2)CC1 [Compound Y-27632, Y-27632]
effect on neointimal formation (neointimal formation): inhibited neointimal formation | effect on ventricular hypertrophy and function [2]: improve ventricular hypertrophy and function | effect on blood pressure (blood pressure): significantly decrease blood pressure | decrease in activity in cellular assays as compared to in vitro activities (ROCK): 100-1,000 fold

C[C@@]1(Cc2ccc(-c3ccncc3)cc2)NC(=O)c2cc(Cl)ccc2NC1=O [Compound 2, (S)-7-chloro-3-methyl-3-(4-(pyridin-4-yl)benzyl)-3,4-dihydro-1H-benzo[e][1,4]diazepine-2,5-dione]
pIC50 [1]: < 5.00

O=S(=O)(c1cccc2cnccc12)N1CCCNCC1 [fasudil]
effect on coronary stenosis (coronary stenosis): progressively reduce coronary stenosis | effect on infarct size and neurologic deficit [3]: reduce both the infarct size and neurologic deficit
